From US20070249620A1, “Urea Derivative” (priority 2004, published 2007) come the findings set out here.

Structures are written as SMILES. Where only a bound is given, the exact number is not on record here.

One data set has as its target T1, mouse DGAT1 (Mus musculus, UniProt Q9Z2A7).
T1 construct: made in house; host or cells: insect cells (High Five, Sf9, Sf21, etc.), baculovirus expression system (Invitrogen)
T1 sequence (Q9Z2A7 1-498): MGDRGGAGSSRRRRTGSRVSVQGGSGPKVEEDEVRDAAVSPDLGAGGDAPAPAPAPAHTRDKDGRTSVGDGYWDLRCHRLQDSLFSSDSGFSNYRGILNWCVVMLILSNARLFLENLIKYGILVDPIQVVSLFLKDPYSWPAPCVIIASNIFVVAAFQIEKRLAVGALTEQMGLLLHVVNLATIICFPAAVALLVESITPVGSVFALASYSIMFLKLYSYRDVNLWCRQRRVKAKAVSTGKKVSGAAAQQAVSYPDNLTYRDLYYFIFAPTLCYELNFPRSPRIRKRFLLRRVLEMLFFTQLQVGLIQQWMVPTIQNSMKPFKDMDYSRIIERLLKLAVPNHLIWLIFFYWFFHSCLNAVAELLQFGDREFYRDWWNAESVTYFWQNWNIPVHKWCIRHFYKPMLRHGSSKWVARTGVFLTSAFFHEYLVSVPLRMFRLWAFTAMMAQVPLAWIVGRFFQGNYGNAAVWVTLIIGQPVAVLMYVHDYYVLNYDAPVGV
The experiment in a line: DGAT1 inhibitory effect test (microsome fraction, [14C]-oleoyl-CoA, triglyceride radioactivity by TLC). The class given is biochemical. To be noted: 0.5 h; concentration of the test compound 0.1 μg/ml; mouse DGAT1 microsomes, 23° C., 30 minutes; read-out: Inhibitory ratio. In short, it runs like this:
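Baculovirus-expressed mouse DGAT1 insect-cell microsomes (10 μg) were incubated 30 min at 23 °C, pH 8.0, with 0.5 mM 1,2-dioleoyl-sn-glycerol, 30 μM [14C]-oleoyl-CoA and 0.5% Triton X-100. [14C]-triglyceride was quantified after heptane extraction and TLC. Percent inhibition was taken against vehicle control, with 0-min background subtracted.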

As to `O=C(Nc1ccc(N2CCN(C(=O)C(O)c3ccc(O)cc3Cl)CC2)nc1)Nc1ccccc1F` (stereo not drawn) [Example 379, 1-(6-{4-[2-(2-chloro-4-hydroxy-phenyl)-2-hydroxy-acetyl]-piperazin-1-yl}-pyridin-3-yl)-3-(2-fluoro-phenyl)-urea], the melting point lay within 133 to 135 °C. Besides, the inhibition at 0.1 µg/mL on mouse DGAT1 was at least 50%.

Take `COc1ccc(C)cc1NC(=O)Nc1ccc(N2CCN(C(=O)C(O)c3ccccc3Cl)CC2)nc1` (stereo not drawn) [Example 380, 1-(6-{4-[2-(2-chloro-phenyl)-2-hydroxy-acetyl]-piperazin-1-yl}-pyridin-3-yl)-3-(2-methoxy-5-methyl-phenyl)-urea]: the melting point was in the range of 118 to 120 °C. The inhibition at 0.1 µg/mL on mouse DGAT1 is at least 50%.

`O=C(Nc1ccc(N2CCN(C(=O)Nc3ccc(C(=O)O)cc3Cl)CC2)cc1)Nc1ccccc1F` [Example 388, 3-chloro-4-[(4-{4-[3-(2-fluoro-phenyl)-ureido]-phenyl}-piperazine-1-carbonyl)-amino]-benzoic acid] had a melting point of 250 to 253 °C. The inhibition at 0.1 µg/mL at mouse DGAT1 is at least 50%.

Consider `CCOP(=O)(O)Cc1ccc(NC(=O)N2CCN(c3ccc(NC(=O)Nc4cc(C)ccc4OC)cc3)CC2)c(C)c1` [Example 391, {4-[(4-{4-[3-(2-methoxy-5-methyl-phenyl)-ureido]-phenyl}-piperazine-1-carbonyl)-amino]-3-methyl-benzyl}-phosphonic acid monoethyl ester], for which the melting point lay in the range of 165 to 173 °C. In addition, at mouse DGAT1, the inhibition at 0.1 µg/mL is at least 50%.

In turn, `COC(=O)Cc1ccc(OC(=O)N2CCN(c3ccc(NC(=O)Nc4cc(C)ccc4OC)cc3)CC2)c(Cl)c1` [Example 393, 4-{4-[3-(2-methoxy-5-methyl-phenyl)-ureido]-phenyl}-piperazine-1-carboxylic acid 2-chloro-4-methoxycarbonylmethyl-phenyl ester] had a melting point of 209 to 210 °C. The inhibition at 0.1 µg/mL on mouse DGAT1 is at least 50%.

`COc1ccc(C)cc1NC(=O)Nc1ccc(N2CCN(C(=O)Oc3ccc(CC(=O)O)cc3Cl)CC2)cc1` [Example 394, 4-{4-[3-(2-methoxy-5-methyl-phenyl)-ureido]-phenyl}-piperazine-1-carboxylic acid 4-carboxymethyl-2-chloro-phenyl ester]: the melting point was 199 to 200 °C. Besides, the inhibition at 0.1 µg/mL at mouse DGAT1 was at least 50%.

Compound `COc1ccc(C)cc1NC(=O)Nc1ccc(N2CCN(C(=O)Oc3ccc(CCO)cc3Cl)CC2)cc1` [Example 395, 4-{4-[3-(2-methoxy-5-methyl-phenyl)-ureido]-phenyl}-piperazine-1-carboxylic acid 2-chloro-4-(2-hydroxy-ethyl)-phenyl ester] showed a melting point of 189 to 190 °C. Besides, on mouse DGAT1, the inhibition at 0.1 µg/mL was at least 50%.

Consider `COc1ccc(C)cc1NC(=O)Nc1ccc2c(c1)CCN(C(=O)Oc1ccc(CCO)cc1Cl)C2` [Example 396, 6-[3-(2-methoxy-5-methyl-phenyl)-ureido]-3,4-dihydro-1H-isoquinoline-2-carboxylic acid 2-chloro-4-(2-hydroxy-ethyl)-phenyl ester], for which the melting point fell in the range of 95 to 98 °C. Besides, the inhibition at 0.1 µg/mL at mouse DGAT1 was at least 50%.

As to `COc1ccc(C)cc1NC(=O)Nc1ccc2c(c1)CCN(C(=O)Oc1ccc(C(=O)O)cc1Cl)C2` [Example 397, 6-[3-(2-methoxy-5-methyl-phenyl)-ureido]-3,4-dihydro-1H-isoquinoline-2-carboxylic acid 4-carboxy-2-chloro-phenyl ester], the melting point lay in the range of 196 to 198 °C. The inhibition at 0.1 µg/mL at mouse DGAT1 was at least 50%.

The term melting point denotes the temperature of the solid-liquid transition.
